Measured values as given in article PMC10766984, “Josephin domain containing 2 (JOSD2) promotes lung cancer by inhibiting LKB1 (Liver kinase B1) activity” (Signal Transduction and Targeted Therapy, 2024).
Where “and” joins values, the source holds several entries; their conditions need not be identical. Identical values can stand only once.

Legend:
[1] = molecular target: JOSD1 (Homo sapiens, UniProt Q15040); experiment: In vitro ubiquitin-AMC assay with GST-JOSD1; assay type: biochemical; settings: incubated with GST-JOSD1 at 37 °C for 30 min
Description: (§1) (means ± SD, n=3). […] (means ± SD, n=3). […] (means ± SD, n=3). […] (means ± SD, n=3).

[2] = test system: NCI-H1299 xenografted tumors; experiment: TUNEL assay in xenografted tumors; assay type: in vivo, BALB/c-Nude mice; settings: oral administration, in situ TUNEL
Description: Apoptosis in xenografted tumors was detected by a TUNEL assay kit (Beyotime Biotechnology, Shanghai, China), according to the manufacturer's protocols. Images were captured by a fluorescence microscope.
(§2) (a) Proliferation assay in LKB1-null cells (means ± SD, n=3). […] Red dashed line indicates 50% of cell survival. (b) Proliferation assay in A549 harboring LKB1-null/WT/3KR (Top) and immunoblotting analysis showing the overexpression efficiency of LKB1-WT/3KR (Bottom). […] (means ± SD, n=3). (c) Representative images of in situ TUNEL assay of cancer cells inside tumor mass with or without JOSD2 inhibitor treatment. (means ± SD, n=3). n.s: P > 0.05; *P < 0.05; **P < 0.01.

[3] = test system: NCI-H1299 cells; experiment: Proliferation assay (SRB), 72 h; assay type: cell-based; settings: Homo sapiens, LKB1-WT
Protocol: (§3) The indicated cell lines were treated with indicated compounds at a series of concentrations for 72 h, followed by cell proliferation assay and colony formation assay. Black dashed line indicates 50% of cell survival.
(§4) For cell proliferation assay, cells infected with lentiviruses packaged indicated plasmids were seeded indicated number cells per well in 96-well plates. Cell number (absorbance) was then estimated by the sulforhodamine B (SRB) (Sigma-Aldrich, #230162) assay and the absorbance of the individual wells was determined at the optical density of 515 nm. For colony formation assay, cells infected with lentiviruses packaged indicated plasmids were seeded indicated number cells per well in 6-well plates. Two weeks later, cells were stained with SRB and the numbers of colonies having more than 50 cells were counted.

[4] = test system: NCI-H292 cells; experiment: Proliferation assay (SRB), 72 h; assay type: cell-based; settings: Homo sapiens, LKB1-WT
Protocol: as §3, §4

[5] = test system: PC-9 cells; experiment: Proliferation assay (SRB), 72 h; assay type: cell-based; settings: Homo sapiens, LKB1-WT
Protocol: as §3, §4

[6] = test system: NCI-H358 cells; experiment: Proliferation assay (SRB), 72 h; assay type: cell-based; settings: Homo sapiens, LKB1-WT
Protocol: as §3, §4

[7] = molecular target: Ataxin-3 (Homo sapiens, UniProt P54252); experiment: In vitro ubiquitin-AMC assay with GST-Ataxin-3; assay type: biochemical; settings: incubated with GST-Ataxin-3 at 37 °C for 30 min
Description: as §1

[8] = test system: LKB1-null NSCLC cell lines; experiment: Proliferation assay, panel of five LKB1-null cell lines; assay type: cell-based; settings: 72 h
Protocol: as §4, §2

[9] = test system: LKB1-WT NSCLC cell lines; experiment: Proliferation assay, panel of LKB1-WT cell lines; assay type: cell-based; settings: average of four LKB1-WT cell lines, 72 h
Protocol: as §3, §4

[10] = test system: A549 harboring LKB1-null/WT/3KR; experiment: Proliferation assay in cells harboring LKB1-null/WT/3KR; assay type: cell-based; settings: series of concentrations, 72 h
Description: as §2

[11] = test system: NCI-H838 cells; experiment: Proliferation assay in LKB1-null cells, 72 h; assay type: cell-based; settings: Homo sapiens
Protocol: as §4, §2

[12] = test system: NCI-H23 cells; experiment: Proliferation assay in LKB1-null cells, 72 h; assay type: cell-based; settings: Homo sapiens
Protocol: as §4, §2

[13] = test system: NCI-H1395 cells; experiment: Proliferation assay in LKB1-null cells, 72 h; assay type: cell-based; settings: Homo sapiens
Protocol: as §4, §2

[14] = test system: NCI-H460 cells; experiment: Proliferation assay in LKB1-null cells, 72 h; assay type: cell-based; settings: Homo sapiens
Protocol: as §4, §2

[15] = test system: A549 cells; experiment: Proliferation assay in LKB1-null cells, 72 h; assay type: cell-based; settings: Homo sapiens
Protocol: as §4, §2

[16] = test system: NCI-H1299 cells; experiment: Apoptosis, IB of cell lysates after 72 h; assay type: cell-based; settings: series of concentrations
Description: as §1

[17] = molecular target: T1, Ataxin-3L (Homo sapiens, UniProt Q9H3M9); experiment: In vitro ubiquitin-AMC assay with GST-Ataxin-3L; assay type: biochemical; settings: incubated with GST-Ataxin-3L at 37 °C for 30 min
T1 sequence (Q9H3M9 1-355): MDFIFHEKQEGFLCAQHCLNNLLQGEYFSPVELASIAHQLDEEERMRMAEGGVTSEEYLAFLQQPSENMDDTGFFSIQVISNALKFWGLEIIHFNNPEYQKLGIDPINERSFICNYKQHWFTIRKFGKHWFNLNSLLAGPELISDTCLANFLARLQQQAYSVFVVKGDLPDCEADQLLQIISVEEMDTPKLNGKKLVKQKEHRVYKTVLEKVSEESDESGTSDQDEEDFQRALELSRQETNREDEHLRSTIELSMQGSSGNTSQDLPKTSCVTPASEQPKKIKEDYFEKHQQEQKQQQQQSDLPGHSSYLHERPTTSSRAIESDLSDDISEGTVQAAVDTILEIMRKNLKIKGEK
Description: as §1

[18] = test system: NCI-H1299 xenografted tumors; experiment: Antitumor activity of HY041004 in vivo; set-up: species or system BALB/c-Nude mice; settings: for Tumor Weight: at the endpoint; for T/C: RTVtreated / RTVcontrol
Protocol: as §3
Female BALB/c-Nude mice (4-5 weeks) were subcutaneously transplanted with 1 mm^3 NCI-H1299 xenograft tumor mass. […] The tumor volume was measured by a caliper every 2 days as soon as the tumor reached a palpable size. Relative tumor volume (RTV) was calculated by (RTV=TVt / TV0, where TV0 is the tumor volume measured when starting treatment). The T/C value was calculated as RTVtreated / RTVcontrol.

Chain of Ataxin-3 (P54252 whole entry): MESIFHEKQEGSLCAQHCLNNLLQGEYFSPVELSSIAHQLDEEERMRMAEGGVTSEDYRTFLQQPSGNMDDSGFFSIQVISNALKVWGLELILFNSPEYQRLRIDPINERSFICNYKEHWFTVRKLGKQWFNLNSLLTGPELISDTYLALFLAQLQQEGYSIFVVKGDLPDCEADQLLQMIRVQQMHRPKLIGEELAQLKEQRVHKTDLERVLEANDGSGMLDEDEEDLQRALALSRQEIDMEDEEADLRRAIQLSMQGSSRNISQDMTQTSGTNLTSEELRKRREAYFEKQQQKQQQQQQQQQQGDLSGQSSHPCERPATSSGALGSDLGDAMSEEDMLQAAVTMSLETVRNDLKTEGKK

For `O=C1c2ccncc2C(=O)c2c1nnn2Cc1cc(F)cc(Cl)c1` [HY041004, 3-(3-chloro-5-fluorobenzyl)-3H-[1,2,3] triazolo[4,5-g]isoquinoline-4,9-dione], the IC50 [1] was 470 nM, the melting point was 172 to 174 °C and the Intratumor cell apoptosis [2] was “induced intratumor cell apoptosis”. The IC50 [3] was 0.1 µM, the IC50 [4] was 0.14 µM and the IC50 [5] was 0.12 µM. For the same compound, the IC50 [6] was 0.13 µM, the IC50 [7] was 5400 nM and the IC50 ([8]; average of five LKB1-null cell lines) was 0.52 µM. The “Susceptibility of LKB1-null cell lines” value ([8]; compared with LKB1 wild-type NSCLC cell lines) was “less than that in LKB1 wild-type NSCLC cell lines”, the IC50 [9] was 0.122 µM and the “Anti-proliferative effect upon exogenous introduction of LKB1-WT, but not 3KR” value [10] was “strengthen the anti-proliferative effect”. It also gave an IC50 [11] of 0.72 µM, an IC50 [12] of 0.73 µM and an IC50 [13] of 0.46 µM. For the same compound, the IC50 [14] was 0.24 µM, the IC50 [15] was 0.46 µM and the Cell apoptosis [16] was “induced cell apoptosis in a concentration-dependent manner”. The IC50 [17] was 12800 nM, the “Tumor Weight” value ([18]; 50 mg/kg orally twice daily) was 1.181 g and 1.18 ± 0.49 g and the T/C ([18]; 50 mg/kg orally twice daily) was 64.71%. The “Tumor Weight” value ([18]; 100 mg/kg orally twice daily) was 0.901 g and 0.90 ± 0.23 g and the T/C ([18]; 100 mg/kg orally twice daily) was 43.88%.
